A short description of data set [1]: Chemical stability (physical properties). The format is physicochemical.
Another data set has as its system conscious rats. As to the kind of experiment: In vivo bioassay for natriuresis, kaliuresis, diuresis and mean arterial pressure in conscious rats. More on the design: species or system female Sprague-Dawley rats. To be noted: for Natriuretic Response (R): Rn = SR/FR, >0.67 active.
A further data set concerns the target Na^+ /K^+ -ATPase (Bos taurus, UniProt Q08DA1). As to the kind of experiment: Na+/K+-ATPase (sodium pump) inhibition assay, 86Rb+ uptake in MDBK cells. The data set is classed as cell-based, bovine (Madin-Darby bovine kidney cells). To be noted: 0.2-200 ng/well. How it is done:
The assay in MDBK cells has been described previously (see Benaksas et al., above). The assay is described briefly here. Madin-Darby bovine kidney (MDBK) cells (ATCC:CCL22) were maintained in Dulbecco's Modified Eagle's Medium (DMEM) with 5% Fetal Bovine Serum and 5% Bovine Calf Serum in a 5% CO2 /95% humidified air atmosphere at 37° C. and split (1:2) once per week.
One day before the assay, cells were plated in a 96-well plate at a density of 5×10^5 cells/well in DMEM with serum. On the day of the assay the medium was removed and the cells washed with phosphate buffered saline (PBS) before addition of 100 μL of assay media (122 mM NaCl, 1.8 mM CaCl2, 0.8 mM MgSO4, 24 mM NaHCO3, 1 mM sodium pyruvate, 25 mM glucose, 14 mM glycylglycine, 0.2% phenol red, 8 mM Na2 HPO4 1.15 mM KH2 PO4, pH 8.0) and 100 μl of sample. The plate was preincubated for 30 minutes at 37° C., then chilled on ice for 10 minutes. To each well was added 0.15 μCi ^86 RbCl (Amersham) in 10 μL of assay media. The plate was then incubated at 37° C. for 10 minutes. A portion (100 μL) of the supernatant was counted with 0.5 mL of scintillation cocktail in a liquid scintillation counter. As a control for Na^+ /K^+ -ATPase inhibition, a dose response curve for ouabain in the range of 10^-5 -10^-8 M was obtained. Intra-experiment coefficient of variation for ouabain was 3-15%. […]

The conditions of data set [2]: literature statement; cited from earlier work.

Several values for one entry are separate records, joined by “and”; a condition that tells them apart may be missing. Equal values may be shown once. Entries after “also recorded” stand apart in the source; their conditions may differ.

The values that follow come from patent publication US6083982A, “Natriuretic compounds” (Loma Linda University Medical, priority 1998, dated 2000).

Description for conscious rats: Female Sprague-Dawley (Harlan) rats (200-250 g) were cannulated in the femoral artery and vein for monitoring of mean arterial pressure (MAP) and infusion of saline and samples, respectively. The bladder was catheterized for collection of urine in ten-minute periods. Furosemide (0.4 mg/kg bwt; 1 mg/mL in 0.17% saline) was infused as a positive control at the beginning of the sixth ten-minute period. The sample was infused at the beginning of the seventeenth ten-minute period. Urine was collected for another 150 minutes. The volume of the urine was determined gravimetrically and the Na^+ and K^+ concentrations determined with a Beckman E2A electrolyte analyzer.
The natriuretic response of a sample was normalized to the dose of furosemide infused. The net sodium excretion for the infusion of furosemide or sample was calculated as follows. The median sodium excretion value (μmoles Na^+ /10 minute period) for the five periods before infusion of furosemide or sample was used to establish a baseline value for the calculation of ΔUNaV(=μmoles Na^+ period-baseline μmoles Na^+) for administration of either furosemide or sample respectively. The sum of ΔUNaV for the four periods following infusion of furosemide was the net sodium excreted for furosemide, defined as FR. The sum of ΔUNaV for the fifteen periods following infusion of the sample was the net sodium excreted for the sample defined as SR. The natriuretic ratio Rn (or normalized natriuretic response) of a sample was calculated by dividing SR by FR(Rn =SR/FR).

For `Cc1c(O)cc2c(c1C)OC(C)(CCC(=O)O)CC2` (stereo not drawn) [LLU-α, 6-hydroxy-2,7,8-trimethylchroman-2-propanoic acid], the “stability in CDCl3” value in data set [1] (CDCl3) is listed as “Unstable”. The “stability in dilute base” value in data set [1] (dilute base) is “instability in dilute base; also recorded: Unstable”. Also, the natriuretic activity result in the data set with conscious rats (8 μg/kg, further purified on acetic acid/acetonitrile RP-HPLC (seventh step)) was “active”. The natriuretic dose-response curve result with conscious rats (Table III) was “narrow and biphasic”. Also, the “natriuretic activity of isolates” value in the data set with conscious rats (crude isolates from second RP-HPLC step) was “natriuretically active”. Also, the “sodium excretion in urine relative to potassium excretion” value in the data set with conscious rats (in mammals) is given as “increasing sodium excretion in the urine in mammals without a corresponding increase in potassium excretion”. Moreover, the “kaliuresis (potassium excretion) on infusion” value in the data set with conscious rats (infused into conscious rats) is given as “no detectable kaliuresis”. The natriuresis on infusion entry in the data set with conscious rats (infused into the rat (FIGS. 3A and B)) was “sustained natriuresis”. Besides, the “effect on blood pressure” value in the data set on conscious rats (infused into the rat, data not shown) is given as “no effect on blood pressure”. Also, the “change in mean arterial pressure” value in the data set with conscious rats (on infusion, conscious rats) is reported as “does not cause a significant change in mean arterial pressure; also recorded: Neither LLU-α nor -γ caused a significant change in mean arterial pressure”. Besides, in the data set on conscious rats (partially purified (sixth purification step), doses below or above 4-8 μg/kg), the “natriuretic activity at lower or higher doses” value was “no activity”. Also, the “natriuretically active dose range” value with conscious rats (partially purified, silica gel HPLC (sixth purification step)) was 4 to 8 µg/kg. Further, the “Natriuretic Response (R)” value is -0.14 with conscious rats (silica gel HPLC fraction 17, dose 0.2 μg); 0.27 in the data set on conscious rats (silica gel HPLC fraction 17, dose 1 μg); 1.14 and 0.75 in the data set with conscious rats (silica gel HPLC fraction 17, dose 2 μg); 0.26 with conscious rats (silica gel HPLC fraction 17, dose 10 μg); 0.23 in the data set on conscious rats (silica gel HPLC fraction 18, dose 56.4 μg); 0.02 in the data set on conscious rats (silica gel HPLC fraction 18, dose 224 μg). The “Natriuretic Response (R)” value in the data set with conscious rats (silica gel HPLC fraction 19, dose 0.2 μg) came out at 0.24; in the data set on conscious rats (silica gel HPLC fraction 19, dose 1 μg), 0.93; with conscious rats (silica gel HPLC fraction 19, dose 10 μg) it was 0.09. In the data set “Free radical scavenging”, the free radical scavenging result was “cardio-selective free radical scavenger”. Also, the “Na^+ /K^+ -ATPase inhibition” value at Na^+ /K^+ -ATPase is listed as “no inhibition”.
On to `C[C@H]1O[C@@H](O[C@H]2[C@@H](O)C[C@H](O[C@H]3[C@@H](O)C[C@H](O[C@H]4CC[C@@]5(C)[C@H](CC[C@@H]6[C@@H]5C[C@@H](O)[C@]5(C)[C@@H](C7=CC(=O)OC7)CC[C@]65O)C4)O[C@@H]3C)O[C@@H]2C)C[C@H](O)[C@@H]1O` [digoxin], for which the natriuretic activity entry in data set [2] is recorded as “not, however, natriuretic”.
For the compound `C[C@@H]1O[C@@H](O[C@H]2C[C@@H](O)[C@]3(CO)[C@H]4[C@H](O)C[C@]5(C)[C@@H](C6=CC(=O)OC6)CC[C@]5(O)[C@@H]4CC[C@]3(O)C2)[C@H](O)[C@H](O)[C@H]1O` [Ouabain], the natriuretic activity entry in data set [2] is recorded as “not, however, natriuretic”.
